Measured values from patent US8551984B2, “Aminopyrimidines as SYK inhibitors” (Merck Sharp & Dohme Corp., priority 2009, dated 2013).

Target: recombinant human SYK (GST-hSYK fusion protein) (Homo sapiens, UniProt P43405)
Assay: biochemical
[1] = rhSYK Activity (IC50), recombinant human GST-SYK 5 pM, ATP 25 μM, biotinylated substrate peptide 250 nM, HTRF, 10-dose titration

From the text: Homogeneous Time-Resolved Fluorescence (HTRF) Assay for the Recombinant Human SYK Enzyme:

Q: `Cc1cc(Nc2nccc(C(F)(F)F)n2)cc(-c2cnc(C3(O)CC4(CC4)C(O)C4(CC4)C3)s2)c1` (centres unmarked) [Example 143(B), 9-[5-(3-methyl-5-{[4-(trifluoromethyl)pyrimidin-2-yl]amino}phenyl)-1,3-thiazol-2-yl]dispiro[2.1.2.3]decane-4,9-diol] was tested. Which IC50 [1] did it give?
A: < 0.1 µM

Q: For `Cc1cc(Nc2nccc(C(F)(F)F)n2)cc(-c2cnc(C3(O)CCN(CC(=O)O)C3)s2)c1` (centres unmarked) [54B-22], which IC50 (rhSYK Activity, Table 54B) is on record?
A: < 0.1 µM

Q: For `Cc1cc(Nc2nccc(C(C)(C)C)n2)cc(-c2cnc(C3(O)CCC(C(=O)O)C(C)(C)C3)s2)c1` (centres unmarked) [116A-32], which IC50 (rhSYK Activity, Table 116A) is on record?
A: < 0.1 µM

Q: For `Cc1cc(Nc2nccc(C(F)(F)F)n2)cc(-c2cnc(C3(O)CCCN(C(=O)CN4CCCC4=O)CC3)s2)c1` (centres unmarked) [Example 54D-91], which IC50 (rhSYK Activity, Table 54D) is on record?
A: < 0.1 µM

Q: For `COc1ccnc(Nc2cc(C)cc(-c3cnc(C4(O)CCNC4)s3)c2)n1` (centres unmarked) [54B-11], which IC50 (rhSYK Activity, Table 54B) is on record?
A: < 0.1 µM

Q: How did the IC50 (rhSYK Activity, Table 113A) turn out when `COc1nc(Nc2cc(C)cc(-c3cnc([C@@]4(O)CC[C@H](C(=O)O)[C@H](C)C4)s3)c2)ncc1Cl` [Example 113A-36] was run?
A: < 0.1 µM

Q: `Cc1cc(Nc2nccc(C(F)(F)F)n2)cc(-c2cnc(C(C)(C)c3ccc(C(=O)O)cc3)s2)c1` [Example 113D-5] was tested. Which IC50 (rhSYK Activity, Table 113D, upper part) did it give?
A: < 0.1 µM

Q: With `Cc1cc(Nc2nccc(C(F)(F)F)n2)cc(-c2cnc(C(=O)N3CCS(=O)(=O)CC3)s2)c1` [Example 87B-14] as the compound, how does the IC50 [1] read?
A: 0.1 to 1 µM

Q: How did the IC50 [1] turn out when `Cc1cc(Nc2nccc(C(F)(F)F)n2)cc(-c2cnc(C(C)NC3CNC(=O)C3)s2)c1` (centres unmarked) [Example 88A-39] was run?
A: < 0.1 µM

Q: With `COc1ccnc(Nc2cc(C)cc(-c3cnc(C4(O)CCNCC4)s3)c2)n1` [Example 54A-20] as the compound, how does the IC50 (RHSYK Activity, Table 54A) read?
A: < 0.1 µM

Q: `Cc1cc(Nc2nccc(C(F)(F)F)n2)cc(-c2cnc(-c3cnn4c3CCCC4)s2)c1` [Example 114-1] was tested. Which IC50 [1] did it give?
A: < 0.1 µM

Q: How did the IC50 [1] turn out when `Cc1cc(Nc2nccc(C(F)(F)F)n2)cc(-c2cnc(CNCC(O)CO)s2)c1` (centres unmarked) [Example 88A-41] was run?
A: < 0.1 µM

Q: For `Cc1cc(Nc2nccc(C(F)(F)F)n2)cc(-c2cnc(C3(O)CCN(C(=O)NC(C)C)CC3)s2)c1` [Example 54A-13], which IC50 (RHSYK Activity, Table 54A) is on record?
A: < 0.1 µM

Q: Which IC50 (rhSYK Activity, Table 54D) does the source give for `Cc1cc(Nc2nccc(C(F)(F)F)n2)cc(-c2cnc(C3(O)CCCN(C(=O)C(C)(CO)CO)CC3)s2)c1` (centres unmarked) [Example 54D-78] here?
A: < 0.1 µM

Q: For `Cc1cc(Nc2ncc(F)c(O)n2)cc(-c2cnc(C3(O)CCC(C(=O)O)C(C)(C)C3)s2)c1` (centres unmarked) [116A-23], which IC50 (rhSYK Activity, Table 116A) is on record?
A: 0.1 to 1 µM

Q: How did the IC50 [1] turn out when `Cc1cc(Nc2nccc(C(F)(F)F)n2)cc(-c2cnc(CN(C)C(C3CC3)C3CC3)s2)c1` [Example 88A-7] was run?
A: < 0.1 µM

Q: How did the IC50 [1] turn out when `Cc1cc(Nc2nccc(C(F)(F)F)n2)cc(-c2cnc(C(=O)N3CCC(O)(C(=O)O)CC3)s2)c1` [Example 87B-22] was run?
A: < 0.1 µM

Q: `Cc1cc(Nc2ncccn2)cc(-c2cnc(C3(NC(=O)NC(N)=O)CCC3)s2)c1` [65-3] was tested. Which IC50 (rhSYK Activity, Table 65) did it give?
A: < 0.1 µM

Q: How did the IC50 [1] turn out when `Cc1cc(Nc2nccc(C(F)(F)F)n2)cc(-c2cnc(C(=O)NC(CO)(CO)CO)s2)c1` [Example 87A-34] was run?
A: < 0.1 µM

Q: With `Cc1cc(Nc2nccc(C(F)(F)F)n2)cc(-c2cnc(C3(O)CCC(=O)NCC3O)s2)c1` (single isomer, unassigned) [161(C), [cis]5,6-dihydroxy-5-[5-(3-methyl-5-{[4-(trifluoromethyl)pyrimidin-2-yl]amino}phenyl)-1,3-thiazol-2-yl]azepan-2-one] as the compound, how does the IC50 [1] read?
A: < 0.1 µM

Q: With `Cc1cc(Nc2nccc(Cl)n2)cc(-c2cnc(C(C)(O)C(F)(F)F)s2)c1` (centres unmarked) [Example 98, 2-(5-{3-[(4-chloropyrimidin-2-yl)amino]-5-methylphenyl}-1,3-thiazol-2-yl)-1,1,1-trifluoropropan-2-ol] as the compound, how does the IC50 [1] read?
A: < 0.1 µM

Q: `COc1ccnc(Nc2cc(C)cc(-c3cnc(C(C)(C)S(N)(=O)=O)s3)c2)n1` [74A-4] was tested. Which IC50 (rhSYK Activity, Table 74A) did it give?
A: < 0.1 µM

Q: Which IC50 (RHSYK Activity, Table 54A) does the source give for `Cc1cc(Nc2nccc(C(F)(F)F)n2)cc(-c2cnc(C3(O)CCN(S(=O)(=O)c4cn(C)cn4)CC3)s2)c1` [Example 54A-3] here?
A: < 0.1 µM

Q: How did the IC50 (rhSYK Activity, Table 113A) turn out when `Cc1cc(Nc2nccc(C)n2)cc(-c2cnc(C3(O)CCC(C(=O)O)CC3C)s2)c1` (centres unmarked) [Example 113A-80] was run?
A: < 0.1 µM

Q: With `Cc1cc(Nc2nc(C)cc(C)n2)cc(-c2cnc([C@]3(O)CC[C@@H](O)CC3)s2)c1` [116A-1] as the compound, how does the IC50 (rhSYK Activity, Table 116A) read?
A: 1 to 10 µM

Q: How did the IC50 [1] turn out when `Cc1cc(Nc2nccc(C(F)(F)F)n2)cc(-c2cnc(C(=O)NCC(C)O)s2)c1` (centres unmarked) [Example 87A-7] was run?
A: < 0.1 µM

Q: For `Cc1cc(Nc2nccc(C(F)(F)F)n2)cc(-c2cnc(C3(F)CCS(=O)(=O)CC3)s2)c1` [Example 134, N-{3-[2-(4-fluoro-1,1-dioxidotetrahydro-2H-thiopyran-4-yl)-1,3-thiazol-5-yl]-5-methylphenyl}-4-(trifluoromethyl)pyrimidin-2-amine], which IC50 [1] is on record?
A: < 0.1 µM

Q: How did the IC50 (rhSYK Activity, Table 33-A) turn out when `COc1ccnc(Nc2cc(C)cc(-c3cnc([C@]4(O)CC[C@](C)(C(=O)O)CC4)s3)c2)n1` [Example 33A-38] was run?
A: < 0.1 µM

Q: With `Cc1cc(Nc2ncc(Cl)c(C(F)(F)F)n2)cc(-c2cnc(C3(NC(=O)NC(N)=O)CCNC(=O)CC3)s2)c1` (centres unmarked) [65-7] as the compound, how does the IC50 (rhSYK Activity, Table 65) read?
A: < 0.1 µM

Q: `COC(=O)[C@H]1CC[C@](O)(c2ncc(-c3cc(C)cc(Nc4nccc(C(C)(C)C)n4)c3)s2)CC1(C)C` [Example 101-3] was tested. Which IC50 [1] did it give?
A: < 0.1 µM

Q: How did the IC50 [1] turn out when `Cc1cc(Nc2nccc(OC(C)(C)C(=O)O)n2)cc(-c2cnc(C3(O)CCC3)s2)c1` [Example 95, 2-{[2-({3-[2-(1-hydroxycyclobutyl)-1,3-thiazol-5-yl]-5-methylphenyl}amino)pyrimidin-4-yl]oxy}-2-methylpropanoic acid] was run?
A: 0.1 to 1 µM

Q: How did the IC50 [1] turn out when `CCOP(=O)(OCC)[C@]1(O)CC[C@@](O)(c2ncc(-c3cc(C)cc(Nc4nccc(C(F)(F)F)n4)c3)s2)CC1` [Example 155(A), Diethyl{cis-1,4-dihydroxy-4-[5-(3-methyl-5-{[4-(trifluoromethyl)pyrimidin-2-yl]amino}phenyl)-1,3-thiazol-2-yl]cyclohexyl}phosphonate] was run?
A: < 0.1 µM

Q: Which IC50 (rhSYK Activity, Table 115) does the source give for `Cc1cc(Nc2nccc(C(F)(F)F)n2)cc(-c2cnc(-c3cnn(C4CCOCC4)c3)s2)c1` [Example 115-1] here?
A: < 0.1 µM

Q: How did the IC50 (rhSYK Activity, Table 113A) turn out when `COC(=O)[C@H]1CC[C@](O)(c2ncc(-c3cc(C)cc(Nc4nccc(C#N)n4)c3)s2)CC1(C)C` [Example 113A-50] was run?
A: < 0.1 µM

Q: `Cc1cc(Nc2nccc(C(F)(F)F)n2)cc(-c2cnc(CN3CCC[S+]([O-])CC3)s2)c1` (centres unmarked) [Example 88B-4] was tested. Which IC50 [1] did it give?
A: < 0.1 µM

Q: How did the IC50 (rhSYK Activity, Table 54E) turn out when `Cc1cc(Nc2nccc(C(F)(F)F)n2)cc(-c2cnc(C3(O)CCC(NC(=O)c4cc(O)ccc4F)CC3)s2)c1` (centres unmarked) [Example 54E-35] was run?
A: < 0.1 µM

Q: Which IC50 (rhSYK Activity, Table 109) does the source give for `NC(=O)Nc1cc(Nc2nccc(OC3CCNCC3)n2)cc(-c2cnc(C3(O)CCC3)s2)c1` [Example 109-11] here?
A: < 0.1 µM

Q: `Cc1cc(Nc2nccc(C(F)(F)F)n2)cc(-c2cnc(C3(O)CCCN(C(=O)CCC#N)CC3)s2)c1` (centres unmarked) [Example 54D-16] was tested. Which IC50 (rhSYK Activity, Table 54D) did it give?
A: < 0.1 µM

Q: For `Cc1cc(Nc2nccc(C(F)(F)F)n2)cc(-c2cnc(C(NS(N)(=O)=O)(C3CC3)C3CC3)s2)c1` [Example 63-4], which IC50 (rhSYK Activity, Table 63) is on record?
A: < 0.1 µM

Q: `CN1CC(c2ncc(-c3cccc(Nc4nccc(C(F)(F)F)n4)c3)s2)CCC1=O` (centres unmarked) [Example 21-17] was tested. Which IC50 (rhSYK Activity, Table 21) did it give?
A: < 0.1 µM

Q: For `CCOC(=O)C1CC(C)C(O)(c2ncc(-c3cc(C)cc(Nc4nccc(C)n4)c3)s2)CC1C` (centres unmarked) [Example 113B-10], which IC50 (rhSYK Activity, Table 113B) is on record?
A: < 0.1 µM

Q: Which IC50 [1] does the source give for `CNC(=O)C1(c2ncc(-c3cc(C)cc(Nc4nccc(C(F)(F)F)n4)c3)s2)CC1` [Example 85B-2] here?
A: < 0.1 µM

Q: With `Cc1cc(Nc2nccc(C(F)(F)F)n2)cc(-c2cnc(C3(C#N)CCCCC3)s2)c1` [Example 128, 1-[5-(3-methyl-5-{[4-(trifluoromethyl)pyrimidin-2-yl]amino}phenyl)-1,3-thiazol-2-yl]cyclohexanecarbonitrile] as the compound, how does the IC50 [1] read?
A: 0.1 to 1 µM

Q: `Cc1cc(Nc2nccc(C(F)(F)F)n2)cc(-c2cnc(C(=O)NC(C)CO)s2)c1` (centres unmarked) [Example 87A-8] was tested. Which IC50 [1] did it give?
A: < 0.1 µM
